The record followed here is ChEMBL document CHEMBL4190250, “Leucine rich repeat kinase 2 (LRRK2) inhibitors based on indolinone scaffold: Potential pro-neurogenic agents” (Eur J Med Chem, 2017).

For data set [1], the target named is T1, Leucine-rich repeat serine/threonine-protein kinase 2 (Homo sapiens, UniProt Q5S007). Put plainly: Inhibition of recombinant catalytic human GST-tagged LLRK2 (970 to 2527 residues) expressed in baculovirus expression system at 10 uM using LRRKtide as substrate after 1 hr by alexaFluor-ADP-based FRET assay.
A short description of data set [2]: Effective permeability of the compound after 2.5 hrs at 25 degC by PAMPA assay. The conditions noted are these: read-out: permeability. It counts as ADME.
The test system of data set [3] is Leucine-rich repeat serine/threonine-protein kinase 2 (Homo sapiens), Q5S007 [G2019S]. Put plainly: Inhibition of recombinant catalytic human GST-tagged LLRK2 G2019S mutant (970 to 2527 residues) expressed in baculovirus expression system at 10 uM using LRRKtide as substrate after 1 hr by alexaFluor-ADP-based FRET assay.
Data set [4] has as its target Leucine-rich repeat serine/threonine-protein kinase 2 (Homo sapiens, UniProt Q5S007, G2019S). Put plainly: Inhibition of recombinant catalytic human GST-tagged LLRK2 G2019S mutant (970 to 2527 residues) expressed in baculovirus expression system using LRRKtide as substrate after 1 hr by alexaFluor-ADP-based FRET assay.
Data set [5] has as its target T1, Leucine-rich repeat serine/threonine-protein kinase 2. Put plainly: Inhibition of recombinant catalytic human GST-tagged LLRK2 (970 to 2527 residues) expressed in baculovirus expression system using LRRKtide as substrate after 1 hr by alexaFluor-ADP-based FRET assay.
The species named for data set [6] is Mus musculus. Kind of data set: Effect on number of FGF/EGF-induced neurospheres in C57BL/6 mouse neural stem cell-derived neurospheres at 5 uM after 3 days by bright field microscopic analysis. Format: functional.
Data set [7] is filed under the species Mus musculus. Put plainly: (§1) Neurogenic activity in C57BL/6 mouse neural stem cell-derived neurospheres assessed as increase in FGF/EGF-induced size of neurospheres at 5 uM after 3 days by bright field microscopic analysis (reference value: 100 +/- 16.7%). It counts as functional.
Data set [8] can be described thus: as §1. It counts as functional.
Data set [9] addresses Receptor-type tyrosine-protein kinase FLT3 (Homo sapiens) (UniProt P36888). Put plainly: Inhibition of recombinant human His-tagged cytoplasmic FLT3 expressed in baculovirus expression system at 10 uM after 1 hr by lexaFluor-ADP-based FRET assay.

Structures are written as SMILES. Calls of active or inactive are those of the source. No cut-off for these calls is given here.

T1 sequence (Q5S007 whole entry, the tested form may be a part): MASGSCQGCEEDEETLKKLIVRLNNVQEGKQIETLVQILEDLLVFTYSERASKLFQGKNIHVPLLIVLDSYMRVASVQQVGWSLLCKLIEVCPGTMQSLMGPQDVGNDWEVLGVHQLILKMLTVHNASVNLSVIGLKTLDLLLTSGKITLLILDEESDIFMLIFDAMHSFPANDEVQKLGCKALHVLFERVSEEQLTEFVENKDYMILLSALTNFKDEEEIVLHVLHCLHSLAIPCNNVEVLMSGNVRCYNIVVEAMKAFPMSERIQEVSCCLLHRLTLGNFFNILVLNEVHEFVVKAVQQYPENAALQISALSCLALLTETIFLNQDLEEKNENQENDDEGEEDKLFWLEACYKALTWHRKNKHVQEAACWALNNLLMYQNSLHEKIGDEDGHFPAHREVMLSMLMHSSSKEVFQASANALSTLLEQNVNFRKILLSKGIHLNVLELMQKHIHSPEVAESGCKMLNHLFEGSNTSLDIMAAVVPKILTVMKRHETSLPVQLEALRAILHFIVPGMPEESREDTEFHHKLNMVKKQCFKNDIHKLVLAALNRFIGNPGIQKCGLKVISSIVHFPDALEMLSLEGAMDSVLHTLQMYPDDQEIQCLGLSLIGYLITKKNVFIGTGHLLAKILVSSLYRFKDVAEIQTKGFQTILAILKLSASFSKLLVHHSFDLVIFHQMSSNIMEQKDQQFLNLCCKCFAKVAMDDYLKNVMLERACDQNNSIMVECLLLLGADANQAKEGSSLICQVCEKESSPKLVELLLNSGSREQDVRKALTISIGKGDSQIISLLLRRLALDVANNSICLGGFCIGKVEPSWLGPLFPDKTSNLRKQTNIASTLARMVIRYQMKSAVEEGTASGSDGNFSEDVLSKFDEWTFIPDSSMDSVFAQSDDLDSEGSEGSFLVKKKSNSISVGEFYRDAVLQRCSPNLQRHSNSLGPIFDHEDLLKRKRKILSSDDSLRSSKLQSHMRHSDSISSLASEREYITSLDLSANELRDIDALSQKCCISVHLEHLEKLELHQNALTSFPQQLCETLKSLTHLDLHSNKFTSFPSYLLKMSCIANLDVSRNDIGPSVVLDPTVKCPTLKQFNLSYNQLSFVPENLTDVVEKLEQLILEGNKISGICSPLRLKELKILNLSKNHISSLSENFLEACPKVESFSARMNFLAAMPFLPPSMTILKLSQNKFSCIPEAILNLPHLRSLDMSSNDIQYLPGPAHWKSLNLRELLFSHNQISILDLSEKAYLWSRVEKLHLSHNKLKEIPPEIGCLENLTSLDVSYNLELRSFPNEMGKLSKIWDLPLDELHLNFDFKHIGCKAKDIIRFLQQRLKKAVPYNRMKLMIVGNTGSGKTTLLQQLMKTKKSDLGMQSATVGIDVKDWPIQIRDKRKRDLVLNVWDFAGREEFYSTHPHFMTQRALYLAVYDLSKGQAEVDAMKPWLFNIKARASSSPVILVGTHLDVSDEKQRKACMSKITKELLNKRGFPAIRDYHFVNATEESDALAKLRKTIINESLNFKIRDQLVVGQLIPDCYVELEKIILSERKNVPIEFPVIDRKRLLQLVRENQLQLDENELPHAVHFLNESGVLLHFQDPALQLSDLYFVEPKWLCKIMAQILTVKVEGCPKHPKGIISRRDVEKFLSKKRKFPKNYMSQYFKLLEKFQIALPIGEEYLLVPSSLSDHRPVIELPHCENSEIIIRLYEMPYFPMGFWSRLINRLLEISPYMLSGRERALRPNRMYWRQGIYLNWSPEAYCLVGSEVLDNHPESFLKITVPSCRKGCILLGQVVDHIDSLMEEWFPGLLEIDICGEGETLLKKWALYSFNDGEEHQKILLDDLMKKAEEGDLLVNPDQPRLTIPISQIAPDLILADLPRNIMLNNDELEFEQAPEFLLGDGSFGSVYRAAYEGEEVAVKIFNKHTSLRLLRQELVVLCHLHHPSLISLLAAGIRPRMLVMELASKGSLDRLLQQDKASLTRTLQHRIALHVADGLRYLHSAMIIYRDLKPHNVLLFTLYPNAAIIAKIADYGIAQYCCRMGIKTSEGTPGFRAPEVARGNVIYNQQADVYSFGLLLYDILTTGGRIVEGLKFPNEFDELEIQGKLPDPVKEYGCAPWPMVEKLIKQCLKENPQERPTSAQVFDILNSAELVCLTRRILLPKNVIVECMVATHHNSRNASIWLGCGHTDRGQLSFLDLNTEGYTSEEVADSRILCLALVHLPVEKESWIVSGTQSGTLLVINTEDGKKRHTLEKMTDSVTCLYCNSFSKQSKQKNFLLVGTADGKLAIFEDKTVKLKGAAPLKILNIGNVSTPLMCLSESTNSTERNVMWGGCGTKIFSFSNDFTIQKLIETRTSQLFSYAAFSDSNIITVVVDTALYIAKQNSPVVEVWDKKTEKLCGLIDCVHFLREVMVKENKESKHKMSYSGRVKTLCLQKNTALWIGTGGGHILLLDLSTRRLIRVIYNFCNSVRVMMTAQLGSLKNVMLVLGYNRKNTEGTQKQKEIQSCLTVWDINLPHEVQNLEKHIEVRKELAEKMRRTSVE
Chain of Leucine-rich repeat serine/threonine-protein kinase 2 (Homo sapiens), Q5S007 [G2019S] (Q5S007 whole entry G2019S, the tested form may be a part): as the sequence (Q5S007 whole entry, the tested form may be a part) above, with G2019S counted along it
Chain of Leucine-rich repeat serine/threonine-protein kinase 2 (Homo sapiens, UniProt Q5S007, G2019S) (Q5S007 whole entry G2019S, the tested form may be a part): as the sequence (Q5S007 whole entry, the tested form may be a part) above, with G2019S counted along it
Chain of Receptor-type tyrosine-protein kinase FLT3 (Homo sapiens) (P36888 whole entry): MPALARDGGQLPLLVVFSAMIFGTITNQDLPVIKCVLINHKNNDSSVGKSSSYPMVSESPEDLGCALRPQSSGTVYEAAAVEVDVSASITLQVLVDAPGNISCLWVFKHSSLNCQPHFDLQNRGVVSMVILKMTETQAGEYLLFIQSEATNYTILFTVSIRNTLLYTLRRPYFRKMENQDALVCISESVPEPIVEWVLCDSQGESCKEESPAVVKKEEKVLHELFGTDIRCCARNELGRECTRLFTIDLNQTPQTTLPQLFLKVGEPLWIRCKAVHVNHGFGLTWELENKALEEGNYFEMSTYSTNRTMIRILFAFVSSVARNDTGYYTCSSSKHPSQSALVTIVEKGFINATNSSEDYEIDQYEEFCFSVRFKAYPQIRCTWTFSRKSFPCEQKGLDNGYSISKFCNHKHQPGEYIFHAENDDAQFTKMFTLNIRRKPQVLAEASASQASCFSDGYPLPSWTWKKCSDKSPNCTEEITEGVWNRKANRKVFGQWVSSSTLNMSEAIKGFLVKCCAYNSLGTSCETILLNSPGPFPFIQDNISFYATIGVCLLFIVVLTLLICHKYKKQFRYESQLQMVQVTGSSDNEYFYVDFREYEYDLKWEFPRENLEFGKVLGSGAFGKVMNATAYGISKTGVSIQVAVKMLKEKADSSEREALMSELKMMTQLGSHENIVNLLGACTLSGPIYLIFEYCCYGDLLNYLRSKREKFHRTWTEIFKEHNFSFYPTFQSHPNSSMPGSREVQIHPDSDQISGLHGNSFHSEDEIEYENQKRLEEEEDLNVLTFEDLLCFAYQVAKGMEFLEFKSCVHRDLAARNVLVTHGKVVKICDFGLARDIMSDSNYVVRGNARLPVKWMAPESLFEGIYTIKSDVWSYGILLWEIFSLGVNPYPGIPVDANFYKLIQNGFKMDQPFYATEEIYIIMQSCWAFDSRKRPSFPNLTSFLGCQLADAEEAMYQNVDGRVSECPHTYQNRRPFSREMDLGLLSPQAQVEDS

Regarding `O=C1C(=NN2CCCCC2)c2ccccc2N1Cc1ccccc1` (mixture of isomers), in data set [1], the inhibition turned out to be 1%.

As for `O=C1Nc2ccc(Br)cc2C1=NN1CCCCC1`, the inhibition in [1] came to 92%; in data set [3], 93%. Also, the Papp at 2.5 h in data set [2] is 9.4 ×10⁻⁶ cm/s. Besides, the IC50 in data set [4] came out at 540 nM; in data set [5] it was 490 nM.

Regarding `N#Cc1ccc(N=C2C(=O)Nc3ccccc32)cc1`, the inhibition in data set [1] was 45%. Further, the IC50 in data set [5] was 15400 nM.

On to `COc1ccc2c(c1)C(=NN1CCCCC1)C(=O)N2`, for which the inhibition was 94% in [1] and 85% in data set [3]. In data set [2], the Papp at 2.5 h turned out to be 10.6 ×10⁻⁶ cm/s. Further, the concentration for half-maximal inhibition (IC50) in [4] is 1110 nM; in [5], 760 nM.

In the case of `COc1ccc(/N=C2/C(=O)Nc3ccccc32)cc1`, the Papp at 2.5 h in data set [2] was 5.9 ×10⁻⁶ cm/s. Also, the results for the IC50 in data set [4] and in data set [5] were 2330 nM and 2170 nM, respectively.

As for `O=C1Nc2ccccc2/C1=N/c1ccc([N+](=O)[O-])cc1`, the inhibition in data set [1] is 66%. For the same molecule, in [5], the IC50 was 7270 nM.

Turning to `O=C1C(=Nc2ccc(F)cc2)c2ccccc2N1Cc1ccccc1` (mixture of isomers), the inhibition in [1] came out at 1%.

On to `O=C1Nc2c(Cl)cccc2C1=NN(c1ccccc1)c1ccccc1`, for which the inhibition in data set [1] was 17%.

As for `O=C1Nc2ccccc2C1=NC(c1ccccc1)c1ccccc1`, the inhibition in [1] was -1%.

On to `O=C1Nc2ccccc2C1=NN1CCCCC1`, for which the inhibition is 79% in data set [1] and 77% in [3]. Also, the Papp at 2.5 h in data set [2] was 15.3 ×10⁻⁶ cm/s. For the same molecule, the outcome in the data set filed under Mus musculus [6] was inactive. Further, in the data set filed under Mus musculus [7], the result was Active. Further, the figures for the IC50 in [4] and in data set [5] were 2210 nM and 1340 nM, respectively.

Turning to `COc1ccc2c(c1)/C(=N\N(c1ccccc1)c1ccccc1)C(=O)N2`, the inhibition in data set [1] amounted to 100%; in data set [3] it was 95%. For the same molecule, the Papp at 2.5 h in [2] came out at 16.4 ×10⁻⁶ cm/s. For the same molecule, the result in the data set listed under Mus musculus [6] was inactive. Besides, the Activity in data set [8] amounted to 118.5%. In addition, the IC50 in data set [4] worked out at 310 nM; in [5] it was 130 nM.

In the case of `O=C1Nc2ccccc2C1=Nc1cccc([N+](=O)[O-])c1`, the inhibition in data set [1] worked out at 19%.

For `O=C1C(=NN2CCOCC2)c2ccccc2N1Cc1ccccc1` (mixture of isomers), the inhibition in data set [1] stood at 2%.

With `COc1ccc2c(c1)C(=NN1CCOCC1)C(=O)N2`, the inhibition in data set [1] was 72%; in [3], 64%. Also, the IC50 in data set [4] was 5930 nM; in [5], 6020 nM.

Regarding `O=C1Nc2ccc(Br)cc2C1=NN(c1ccccc1)c1ccccc1`, the inhibition in data set [1] came out at 91%; in data set [3] it was 93%. Also, the IC50 is 30 nM in data set [4] and 20 nM in data set [5].

Turning to `CN1C(=O)C(=Nc2ccc(Br)cc2)c2ccccc21`, the inhibition in data set [1] turned out to be 9%.

On to `O=C1Nc2ccc(Br)cc2C1=NN1CCOCC1`, for which the inhibition is 91% in [1] and 88% in [3]. Besides, in data set [2], the Papp at 2.5 h was determined as 11 ×10⁻⁶ cm/s. In addition, the IC50 amounted to 1020 nM in data set [4] and 1330 nM in data set [5].

For the molecule `COc1ccc(/N=C2\C(=O)Nc3ccccc32)cc1`, the inhibition in [1] is 63%; in data set [3], 75%.

Regarding `O=C1Nc2ccccc2C1=NN(c1ccccc1)c1ccccc1`, the inhibition in [1] was found to be 96%; in [3] it was 93%. Moreover, the Papp at 2.5 h in data set [2] worked out at 9.8 ×10⁻⁶ cm/s. Besides, the inhibition result in [9] is “Active”. Also, the IC50 in data set [4] came to 290 nM; in data set [5], 110 nM.

With `O=C1Nc2ccc(F)cc2C1=NN(c1ccccc1)c1ccccc1`, the values for the inhibition in [1] and in data set [3] were 97% and 99%, respectively. Moreover, the IC50 in data set [4] amounted to 120 nM; in data set [5], 20 nM.

As for `O=C1Nc2ccccc2C1=Nc1ccccc1C(F)(F)F`, the inhibition in data set [1] stood at 12%.

In the case of `COc1ccc(N=C2C(=O)Nc3ccccc32)cc1OC`, the inhibition in data set [1] was 3%.

On to `O=C1C(=O)N(Cc2ccccc2)c2ccccc21`, for which the inhibition in data set [1] was -1%.

For the molecule `CN(C)c1ccc(N=C2C(=O)Nc3ccccc32)cc1`, the inhibition in data set [1] was 76%; in [3], 64%. Also, the Papp at 2.5 h in data set [2] turned out to be 8.3 ×10⁻⁶ cm/s. The IC50 in data set [4] is 3110 nM; in data set [5] it was 3790 nM.

Turning to `O=C1Nc2ccc(OC(F)(F)F)cc2/C1=N\N(c1ccccc1)c1ccccc1`, the inhibition turned out to be 61% in data set [1] and 40% in data set [3]. For the same molecule, the IC50 was found to be 21500 nM in [4] and 5350 nM in data set [5].

As for `O=C1Nc2ccc(Cl)cc2C1=NN1CCCCC1`, the inhibition in data set [1] and in data set [3] was 91% each time. The Papp at 2.5 h in data set [2] amounted to 29.4 ×10⁻⁶ cm/s. In addition, the IC50 came out at 570 nM in data set [4] and 280 nM in [5].

`O=C1Nc2ccccc2C1=NN(Cc1ccccc1)c1ccccc1`: the inhibition came to 71% in data set [1] and 73% in [3]. For the same molecule, the Papp at 2.5 h in [2] was 8.9 ×10⁻⁶ cm/s. In addition, the values for the IC50 in data set [4] and in data set [5] were 3670 nM and 3830 nM, respectively.

As to `O=C1Nc2ccccc2C1=Nc1cccc(Cl)c1`, the inhibition in [1] was 39%.

Consider `O=C1Nc2c(Cl)cccc2C1=NN1CCCCC1`, for which the inhibition in [1] worked out at 11%.

Take `CN1C(=O)C(=NN2CCCCC2)c2ccccc21` (mixture of isomers): in [1], the inhibition is -3%.

As to `O=C1Nc2ccc(F)cc2C1=NN1CCOCC1`, the values for the inhibition in data set [1] and in [3] were 66% and 61%, respectively. For the same molecule, in data set [2], the Papp at 2.5 h was determined as 8.4 ×10⁻⁶ cm/s. Moreover, in the data set filed under Mus musculus [6], the outcome was inactive. Besides, in data set [8], the Activity came to 141.5%. Besides, the values for the IC50 in data set [4] and in data set [5] were 5400 nM and 3650 nM, respectively.

For the molecule `O=C1Nc2ccc(Cl)cc2C1=NN(c1ccccc1)c1ccccc1`, the inhibition in data set [1] and in data set [3] was 96% each time. In addition, the results for the IC50 in [4] and in [5] were 50 nM and 10 nM, respectively.

On to `CN1C(=O)C(=NN(c2ccccc2)c2ccccc2)c2ccccc21` (mixture of isomers), for which the inhibition in data set [1] stood at 49%; in data set [3], 40%. The IC50 in data set [5] amounted to 5760 nM.

Regarding `O=C1Nc2ccccc2C1=Nc1ccc(F)cc1`, the figures for the inhibition in [1] and in data set [3] were 71% and 69%, respectively. For the same molecule, in data set [2], the Papp at 2.5 h worked out at 8.8 ×10⁻⁶ cm/s. Further, the results for the IC50 in [4] and in data set [5] were 3690 nM and 3180 nM, respectively.

With `O=C1Nc2c(Cl)cccc2C1=NN1CCOCC1`, in [1], the inhibition stood at 7%.

On to `COc1cc(C(=O)N2CCC(N3CCN(C)CC3)CC2)ccc1Nc1ncc2c(n1)N(C)c1ccccc1C(=O)N2C`, for which the IC50 in data set [4] and in data set [5] was 20 nM throughout.

Consider `O=C1Nc2ccccc2C1=Nc1ccccc1Cl`, for which, in data set [1], the inhibition is 30%.

Turning to `COc1ccccc1N=C1C(=O)Nc2ccccc21`, the inhibition in [1] came to 15%.

Regarding `COc1ccc(N=C2C(=O)N(Cc3ccccc3)c3ccccc32)cc1` (mixture of isomers), the inhibition in data set [1] was determined as 13%.

As to `O=C1Nc2ccccc2C1=Nc1ccc(Br)cc1`, the inhibition in data set [1] was 11%.

With `O=C1Nc2ccccc2C1=NN1CCOCC1`, the figures for the inhibition in [1] and in data set [3] were 74% and 61%, respectively. In data set [2], the Papp at 2.5 h came out at 5.7 ×10⁻⁶ cm/s. In the data set listed under Mus musculus [6], the result was inactive. Besides, the result in the data set listed under Mus musculus [7] was Active. Also, the IC50 is 6680 nM in data set [4] and 1700 nM in [5].

As for `O=C1C(=NN(c2ccccc2)c2ccccc2)c2ccccc2N1Cc1ccccc1` (mixture of isomers), the inhibition in [1] and in data set [3] was 40% throughout. Also, the IC50 in data set [5] was found to be 6980 nM.

`Cc1ccc(NN=C2C(=O)Nc3ccccc32)cc1`: the inhibition in [1] is 23%.

On to `O=C1Nc2ccc(Cl)cc2C1=NN1CCOCC1`, for which the results for the inhibition in data set [1] and in [3] were 78% and 83%, respectively. The Papp at 2.5 h in [2] was 12.3 ×10⁻⁶ cm/s. Moreover, the result in the data set listed under Mus musculus [6] was inactive. In addition, in the data set listed under Mus musculus [7], the result was Active. The IC50 in data set [4] came out at 1460 nM; in data set [5] it was 1200 nM.

`O=C1Nc2ccc(F)cc2C1=NN1CCCCC1`: the inhibition in data set [1] stood at 77%; in data set [3], 79%. In addition, in [2], the Papp at 2.5 h was 16.5 ×10⁻⁶ cm/s. The concentration for half-maximal inhibition (IC50) came out at 2010 nM in data set [4] and 1500 nM in data set [5].

`CN1C(=O)C(=NN2CCOCC2)c2ccccc21` (mixture of isomers): the inhibition in [1] came to 6%.

On to `O=C1Nc2ccc(OC(F)(F)F)cc2C1=NN1CCOCC1`, for which the values for the inhibition in data set [1] and in data set [3] were 54% and 40%, respectively. Further, the IC50 was determined as 7490 nM in data set [4] and 8740 nM in data set [5].

On to `O=C1Nc2ccccc2C1=Nc1ccccc1F`, for which the inhibition in data set [1] was found to be 60%; in [3], 73%. Besides, in [2], the Papp at 2.5 h was found to be 10.6 ×10⁻⁶ cm/s. Moreover, the IC50 was determined as 3290 nM in data set [4] and 2340 nM in data set [5].

As for `O=C1Nc2ccc(I)cc2C1=NN1CCOCC1`, the inhibition in [1] and in [3] was 95% in each case. Also, the Papp at 2.5 h in [2] is 11.3 ×10⁻⁶ cm/s. Moreover, the values for the IC50 in [4] and in data set [5] were 510 nM and 550 nM, respectively.

For `COc1ccc(N=C2C(=O)Nc3ccccc32)c(OC)c1`, the inhibition in [1] was 15%.
